Measurements reported in ChEMBL document CHEMBL5726510, “MK2 inhibitors and uses thereof” (2017).

The compounds below were run against MAP kinase-activated protein kinase 2 (Homo sapiens, UniProt P49137) (assay: Mass Spectrometry Assay: Compounds I-1 through I-50 of the invention were assayed in a mass spectrometric assay to measure their ability to covalently modify MK2 protein. The procedure for this assay follows. Intact MK2 protein (Invitrogen, Cat. No. PR5320A) was incubated for 60 minutes at room temperature with a 10-fold excess of test compound to protein. Aliquots of the resulting mixture (6 μL …).
Chain of MAP kinase-activated protein kinase 2 (P49137 whole entry): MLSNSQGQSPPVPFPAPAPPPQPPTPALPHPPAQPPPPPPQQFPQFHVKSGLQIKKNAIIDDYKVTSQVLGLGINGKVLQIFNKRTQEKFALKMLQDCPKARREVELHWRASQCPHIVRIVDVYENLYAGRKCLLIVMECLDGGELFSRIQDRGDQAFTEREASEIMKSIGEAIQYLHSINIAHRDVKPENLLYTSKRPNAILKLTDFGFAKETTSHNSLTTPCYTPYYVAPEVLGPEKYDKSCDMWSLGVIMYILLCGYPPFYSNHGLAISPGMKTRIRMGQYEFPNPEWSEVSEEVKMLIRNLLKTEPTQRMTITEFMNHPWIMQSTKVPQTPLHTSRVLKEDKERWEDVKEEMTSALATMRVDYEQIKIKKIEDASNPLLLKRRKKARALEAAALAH

Question: `C[C@@H]1CNc2c(sc3ccc4nc(Nc5nc(Cl)ncc5C(=O)NC5CC5)ccc4c23)C(=O)N1` was tested. Which IC50 did it give?
Answer: Its IC50 is less than 100 nM.

Question: How did the IC50 turn out when `C[C@@H]1CNc2c(sc3ccc4nc(Nc5nc(Cl)ncc5C(=O)NC5CCN(C)CC5)ccc4c23)C(=O)N1` was run?
Answer: The IC50 was less than 100 nM.

Question: Which IC50 does the source give for `C[C@@H]1CNc2c(sc3ccc4nc(Oc5cc(CNC(C)(C)C)nc(Cl)n5)ccc4c23)C(=O)N1` here?
Answer: The IC50 was less than 100 nM.

Question: `C[C@@H]1CNc2c(sc3ccc4nc(Nc5nccc(Cl)n5)ccc4c23)C(=O)N1` was tested. Which IC50 did it give?
Answer: Its IC50 is greater than 1000 nM.

Question: `CN(C)C[C@@H]1CNc2c(sc3ccc4nc(Nc5cc(F)ncn5)ccc4c23)C(=O)N1` was tested. Which IC50 did it give?
Answer: Its IC50 is greater than 1000 nM.

Question: With `C[C@@H]1CNc2c(sc3ccc4nc(Nc5nc(Cl)ncc5C(=O)NC5COC5)ccc4c23)C(=O)N1` as the compound, how does the IC50 read?
Answer: Its IC50 is less than 100 nM.
